{"source": "patent US20240026461A1", "about": "“BCL10 MUTATIONS AS BIOMARKERS FOR TARGETED THERAPY IN B CELL LYMPHOMAS” (priority 2022, published 2024)", "key": {"OCI-LY10^E140X": {"system": "OCI-LY10^E140X", "test": "Growth inhibition assay (CellTiter Glo), OCI-Ly10 cells expressing BCL10 E140X", "format": "cell-based", "conditions": "Homo sapiens, 96 h, read-out: IC50, growth inhibition, MALT1 inhibitors", "method": "(§1) DLBCL cell lines were cultured in exponential condition and the cell growth was determined by CellTiter Glo (Promega). 3000-5000 cells were seeded and cultured in each well of 384 well plate for 96 h and treated with compounds every 48 h. Luminescence was read at the endpoint with the Synergy NEO microplate reader (BioTek). The value of compound treated cells was normalized to their vehicle treated controls and then used to calculate IC50 in GraphPad Prism (RRID:SCR_002798).\n(§2) Given the distinct functional profiles, CARD11 dependencies, and MALT1 activation effects of the BCL10 CARD and truncation mutants, the inventors designed experiments to evaluate whether, and to what extent, these mutant BCL10 proteins might confer BTK inhibitor resistance. Isogenic ABC-DLBCL cells expressing BCL10WT, BCL10^R58Q and BCL10^E140X proteins were treated with escalating doses of three chemically distinct covalent BTK inhibitors: ibrutinib, acalabrutinib, or zanubrutinib. The cellular proliferation rates of the treated cells were measured using an ATP fluorescence assay after 96 hours of drug exposure.\n(§3) Isogenic BCL10^WT, BCL10^R58Q and BCL10^E140X ABC-DLBCLs were exposed to increasing concentrations of each of these compounds for 96 hours."}, "HBL1^WT": {"system": "HBL1^WT", "test": "Growth inhibition assay (CellTiter Glo), HBL1 cells expressing BCL10 WT", "format": "cell-based", "conditions": "Homo sapiens, 96 h, read-out: IC50, growth inhibition, MALT1 inhibitors", "method": "as §1, §2, §3"}, "OCI-LY10^WT": {"system": "OCI-LY10^WT", "test": "Growth inhibition assay (CellTiter Glo), OCI-Ly10 cells expressing BCL10 WT", "format": "cell-based", "conditions": "Homo sapiens, 96 h, read-out: IC50, growth inhibition, MALT1 inhibitors", "method": "as §1, §2, §3"}, "[1]": {"system": "isogenic ABC-DLBCL cells expressing BCL10^WT, BCL10^R58Q and BCL10^E140X", "test": "Growth inhibition of isogenic ABC-DLBCL cells, response described in words", "format": "cell-based, human", "conditions": "96 hours", "method": "as §1, §2, §3"}, "[2]": {"target": "T1, full-length MALT1 protein (Strep-MALT1(1-824)-His) (Homo sapiens, UniProt Q9UDY8)", "T1 construct": "full-length MALT1 protein (Strep-MALT1(1-824)-His); Strep (N); His (C); made in house; host or cells: baculovirus-infected insect cells", "test": "Biochemical evaluation of MALT1 protease activity (Ac-LRSR-AMC cleavage)", "conditions": "preincubated 50 min at RT, substrate Ac-LRSR-AMC 4 h; read-out: IC50, MALT1 enzyme", "method": "FIG. 21A. Chemical structure of JNJ-67690246. FIG. 21B. IC50 values for JNJ-67690246 in biochemical enzymatic and cellular cytokine secretion assays. MALT1 proteolytic IC50: purified recombinant MALT1 was preincubated for 50 min at RT with JNJ-67690246, substrate Ac-LRSR-AMC was then incubated for 4 h. MALT1 proteolytic activity was determined by measuring the increase of AMC fluorescence. […] FIG. 21C. Table for IC50 values of three different MALT1 inhibitors measured in HBL1 and OCI-Ly10 cells expressing WT and mutant BCL10. D-F. MALT1 activity measured in OCI-Ly10 GloSensor reporter cells treated with MALT1 inhibitors. […] FIG. 21G-I. NF-κB activity measured in NF-κB-RE-luciferase reporter cell lines treated with MALT1 inhibitors. […]\nMALT1 protease activity was assessed in vitro using full-length MALT1 protein (Strep-MALT1(1-824)-His) purified from baculovirus-infected insect cells. […] Cleavage of AMC from the arginine residue results in an increase in coumarin fluorescence measured at 460 nm (excitation 355 nm). […] Substrate was added and the reaction was then incubated for 4 h at RT, after which fluorescence was measured.\nMALT1 protease activity was assessed in vitro using full-length MALT1 protein (Strep-MALT1 (1-824)-His) purified from baculovirus-infected insect cells. […] Cleavage of AMC from the arginine residue results in an increase in coumarin fluorescence measured at 460 nm (excitation 355 nm). […]"}, "[3]": {"system": "IL-10 secretion by OCI-Ly3 ABC-DLBCL cells", "test": "IL-10 secretion assay using OCI-Ly3 cells (MSD)", "format": "cell-based", "conditions": "Homo sapiens, 24 h, read-out: IC50, IL10 secretion", "method": "(§4) FIG. 21A. Chemical structure of JNJ-67690246. FIG. 21B. IC50 values for JNJ-67690246 in biochemical enzymatic and cellular cytokine secretion assays. MALT1 proteolytic IC50: purified recombinant MALT1 was preincubated for 50 min at RT with JNJ-67690246, substrate Ac-LRSR-AMC was then incubated for 4 h. MALT1 proteolytic activity was determined by measuring the increase of AMC fluorescence. […] FIG. 21C. Table for IC50 values of three different MALT1 inhibitors measured in HBL1 and OCI-Ly10 cells expressing WT and mutant BCL10. D-F. MALT1 activity measured in OCI-Ly10 GloSensor reporter cells treated with MALT1 inhibitors. OCI-Ly10 MALT1 GloSensor cells were stably expressing wildtype and mutant BCL10, then treated with MALT1 inhibitors of different range (10-0.3 uM). FIG. 21G-I. NF-κB activity measured in NF-κB-RE-luciferase reporter cell lines treated with MALT1 inhibitors. HBL1 NF-κB reporter cells lines were stably expressing wildtype and mutant BCL10, and then treated with MALT1 inhibitors of different range (10-0.3 uM). NF-xB activity was performed 24 h after treatment. Error bars indicate SEM with 4 biological replicates. p<0.05; “p<0.01; “<0.001; ****p<0.0001; ns, not significant.\n(§5) Secretion of the IL-6 and IL-10 cytokines by OCI-Ly3 ABC-DLBCL cells was measured using a Mesoscale assay (MSD). MALT1 inhibition results in a decrease of IL-6/10 secretion. […] Plates were read on a SECTOR imager."}, "[4]": {"system": "IL-6 secretion by OCI-Ly3 ABC-DLBCL cells", "test": "IL-6 secretion assay using OCI-Ly3 cells (MSD)", "format": "cell-based", "conditions": "Homo sapiens, 24 h, read-out: IC50, IL6 secretion", "method": "as §4, §5"}, "HBL1^E140X": {"system": "HBL1^E140X", "test": "Growth inhibition assay (CellTiter Glo), HBL1 cells expressing BCL10 E140X", "format": "cell-based", "conditions": "Homo sapiens, 96 h, read-out: IC50, growth inhibition, MALT1 inhibitors", "method": "as §1, §2, §3"}, "OCI-LY10^R58Q": {"system": "OCI-LY10^R58Q", "test": "Growth inhibition assay (CellTiter Glo), OCI-Ly10 cells expressing BCL10 R58Q", "format": "cell-based", "conditions": "Homo sapiens, 96 h, read-out: IC50, growth inhibition, MALT1 inhibitors", "method": "as §1, §2, §3"}}}
{"smiles": "Cc1nc(-n2nccn2)c(Cl)cc1NC(=O)c1cnn(-c2cccc3c(=O)[nH]ccc23)c1C(F)(F)F", "note": "[JNJ-67690246]", "values": [{"measurement": "IC50", "setting": "OCI-LY10^E140X", "result": "270 ± 20", "unit": "nM"}, {"measurement": "IC50", "setting": "HBL1^WT", "result": "1580 ± 500", "unit": "nM"}, {"measurement": "IC50", "setting": "OCI-LY10^WT", "result": "320 ± 70", "unit": "nM"}, {"measurement": "growth response in words", "setting": "[1]; BCL10^R58Q ABC-DLBCL cells", "result": "generally sensitive"}, {"measurement": "growth response in words", "setting": "[1]; BCL10^WT ABC-DLBCL cells", "result": "generally sensitive"}, {"measurement": "IC50", "setting": "[2]", "result": 15, "unit": "nM"}, {"measurement": "IC50", "setting": "[3]", "result": 60, "unit": "nM"}, {"measurement": "IC50", "setting": "[4]", "result": 60, "unit": "nM"}, {"measurement": "IC50", "setting": "HBL1^E140X", "result": "150 ± 20", "unit": "nM"}, {"measurement": "IC50", "setting": "OCI-LY10^R58Q", "result": "780 ± 200", "unit": "nM"}]}
